The source of these data is patent US20100298234A1, “Cancer therapeutic agents comprising a ligand for the neuromedin u receptor 2 (fm4) molecule as an active ingredient” (priority 2006, published 2010).

In assay [1] the test system is FM4-CHO cells. Briefly: Cell morphology of FM4-CHO cells under a microscope after NmU stimulation. The assay is classed as cell-based, Chinese hamster. As to conditions: FM4-CHO stimulated with NmU, in approximately 12 hours, FIG. 8. The text has this: The cell morphology of FM4-CHO cells which were forced to express FM4 was observed under a microscope.
This led to the speculation that NmU is involved in signal transduction that regulates cell adhesion and cell movement.

Assay [2] relates to FM4-CHO cells. Nature of the assay: Proliferation-suppressing effect, WST-8 assay, FM4-CHO. The class given is cell-based, Chinese hamster. The note with it: NmU 0.096 μM to 60 μM, 48 hours, FIG. 4A. As for the experimental part:
FM4-CHO cells were plated onto a 96-well plate at 2×10^3 cells/well. On the following day, NmU was added to each well at various concentrations (0.096 μM to 60 μM) and the cells were cultured. 48 Hours later, the number of viable cells were analyzed by WST-8 assay (Cell counting kit-8, Dojindo Laboratories).
Background: Tetrazolium assays rely on reduction of a dye to a coloured formazan, in cell work by metabolically active cells.

In assay [3] the test system is FM4-CHO cells. Nature of the assay: Wound healing assay (cell movement), FM4-CHO cells. The class given is cell-based, Chinese hamster. The note with it: NmU 5 μM, serum-free medium, 24 hours, FIG. 9. The method, then:
(§1) Next, the effect of NmU on cell movement ability was analyzed by wound healing assay. Parent cell line CHO cells and FM4-CHO cells were grown to confluency in plates, and wounded with a pipette tip to make a fixed clearance between the cells. After washing the cells twice with PBS, the cells were cultured in a serum-free culture medium in the presence or absence of NmU (5 μM). Twenty-four hours later, cells that moved into the clearance between the cells were observed and photographed under a microscope.

Assay [4] addresses T1, FM4 (Homo sapiens, UniProt Q9GZQ4).
T1 construct: host or cells: CHO, HEK-293 and COS-7 cells with forced expression
The note with it: CHO, HEK-293 and COS-7 cells forced to express FM4; cited from earlier work.

In assay [5] the target is T2, FM4 (Homo sapiens, UniProt Q9GZQ4, A395T/C204F).
T2 construct: using Pyrobest Taq polymerase (Takara) to clone the full-length FM4 gene; expressed in transfected cells
T2 sequence (Q9GZQ4 whole entry C204F/A395T): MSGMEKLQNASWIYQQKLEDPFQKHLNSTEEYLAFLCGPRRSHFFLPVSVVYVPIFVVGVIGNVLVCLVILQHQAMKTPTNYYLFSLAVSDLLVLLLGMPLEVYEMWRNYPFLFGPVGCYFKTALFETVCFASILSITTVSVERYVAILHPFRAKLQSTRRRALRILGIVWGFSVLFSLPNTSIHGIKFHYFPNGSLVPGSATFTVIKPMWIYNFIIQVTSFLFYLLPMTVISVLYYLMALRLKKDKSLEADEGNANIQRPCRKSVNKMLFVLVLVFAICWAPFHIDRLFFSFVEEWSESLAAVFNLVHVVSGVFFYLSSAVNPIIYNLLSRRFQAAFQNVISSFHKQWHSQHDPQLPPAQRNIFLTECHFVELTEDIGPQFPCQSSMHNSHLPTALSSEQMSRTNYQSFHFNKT
Briefly: Intracellular Ca2+ concentration in FM4-expressing PANC1 cells (FM4-PANC1). The assay is classed as cell-based. The note with it: FM4-PANC1, NmU 1 μM, FIG. 6. The method, then: (§2) The cells were detached using trypsin, plated onto a 96-well plate (black plate for fluorescence measurement) at 2×10^4 cells/well, and after culturing overnight, they were used for intracellular calcium measurements. Measurement of the intracellular calcium concentration was performed as follows.
After removing the medium, an Fluo 4 AM solution [2% FCS, 3 μM Fluo 4 AM (Molecular PROBES) in assay buffer (2 mM HEPES, 1.5 mM probenecid in HBSS)] was added at 50 μL/well. After incubation in the dark at 37° C. for 30 minutes, the cells were washed three times in the assay buffer. […]
In order to confirm that the NmU signaling is transmitted into the cell in the obtained FM4-expressing PANC1 cells (FM4-PANC1), whether the addition of NmU increased the intracellular Ca^2+ concentration was analyzed. […] This confirmed that in the established FM4-PANC1 cells, NmU stimulation causes the FM4-mediated signaling to be transmitted into the cell.

Assay [6] deals with T2, FM4. Nature of the assay: Intracellular Ca2+ concentration measurement (Fluo 4 AM) in FM4-expressing CHO cells. The assay is classed as cell-based. As to conditions: FM4-CHO cell line, 2.5 μM NmU, FIG. 3. The method, then: 15 μg of linearized FM4 expression vector (pMCN-FM4) obtained by digestion with PvuI was introduced into CHO cells by electroporation (Gene Pulser; BioRad) at 1.5 kV, 25 μFD. The cells were cultured in a medium containing 500 μg/mL of G418, and G418-resistant cells were picked. NmU was added to these cells, and cell lines that reacted to NmU were selected using the increase in intracellular Ca^2+ concentration as an index.
as §2
After removing the medium, an Fluo 4 AM solution [2% FCS, 3 μM Fluo 4 AM (Molecular PROBES) in assay buffer (2 mM HEPES, 1.5 mM probenecid in HBSS)] was added at 50 μL/well. After incubation in the dark at 37° C. for 30 minutes, the cells were washed three times in the assay buffer. Then, an assay buffer that contains 2.5 μM of NmU (Funakoshi) was added, and the intracellular Ca^2+-dependent fluorescence trace at 490-nm excitation was monitored on a plate reader for fluorimetric analysis (Fusion; Perkin Elmer).

The next assay relates to FM3. As to conditions: CHO, HEK-293 and COS-7 cells forced to express FM3; cited from earlier work.
The test system of another assay is PANC1 cells. Briefly: Soft agar colony formation assay, parent PANC1 cells. The class given is cell-based, human. The note with it: parent cell line PANC1 that does not express FM4, NmU 1 μM, one month, FIG. 7. As for the experimental part:
(§3) To analyze the effect of NmU on the ability of this cell to form colonies, soft agar colony formation assay was performed. Soft agar colony formation assay was performed as follows.
(§4) Base agar (0.5% agar, 1×MEM, and 10% FCS) was added to each well of a 6-well plate at 1.5 mL/well, and then 1.5 mL/well (0.5×10^4 cells/well) of PANC1 cells or FM4-PANC1 cells in the presence or absence of NmU (1 μM) in top agar (0.35% agar, 1×MEM, and 10% FCS) was added at to each of the wells. After culturing for one month, the number of colony forming cells in the soft agar was counted under a microscope.

For the next assay, the system named is PANC-1. Briefly: Proliferation of pancreatic cancer cell line PANC-1. The assay is classed as cell-based, human. As to conditions: PANC-1, NmU 0.096 μM to 60 μM, 72 hours, FIG. 4B. As for the experimental part:
(§5) On the following day, NmU was added to each well at 0.096 μM to 60 μM. Seventy-two hours later, the number of cells was determined.

A further assay relates to FM4-PANC1 cells. Briefly: Soft agar colony formation assay, FM4-PANC1 cells. The class given is cell-based, human. The note with it: FM4-PANC1, NmU 1 μM, one month, FIG. 7. As for the experimental part:
as §3, §4

For a further assay, the system named is CHO cells. Briefly: Wound healing assay (cell movement), parent CHO cells. The assay is classed as cell-based, Chinese hamster. The note with it: NmU 5 μM, serum-free medium, 24 hours, FIG. 9. As for the experimental part: as §1
For assay [7] the following is noted: administration into the cerebral ventricle; cited from earlier work.
For another assay, the system named is Capan-1. Nature of the assay: Proliferation of pancreatic cancer cell line Capan-1. The assay is classed as cell-based, human. As to conditions: Capan-1 (high FM4 gene expression), NmU 0.096 μM to 60 μM, 72 hours, FIG. 4B. The method, then:
as §5

T1 sequence (Q9GZQ4 whole entry): as the sequence (Q9GZQ4 whole entry C204F/A395T) above, with F204C, T395A counted along it

As to “NmU: biologically active peptide, endogenous ligand for FM3 and FM4; polypeptide of SEQ ID NO: 14; NmU (Funakoshi) used in the tests (FRVDEEFQSPFASQSRGYFLFRPRN; listed as Homo sapiens)”, in the assay with FM4-CHO cells [1], the cell morphology result is “significant morphological alterations of the cells such as disappearance of cell protrusions”. The “proliferation (number of viable cells, WST-8)” value in the assay with FM4-CHO cells [2] is recorded as “suppressed proliferation of FM4-CHO at low concentration”. For the same substance, the values for the cell movement entry with FM4-CHO cells [3] and in the assay with CHO cells were “completely inhibited” and “did not have any effect”, respectively. For the same substance, the “intracellular calcium ion concentration” value in the assay with FM4 [4] and in the assay on FM3 was “induced increase of intracellular calcium ion concentration at the nanomolar level” each time. In addition, the “intracellular Ca2+ concentration” value with FM4 [5] is listed as “increase of the intracellular Ca^2+ concentration”; in the assay with FM4 [6], “quickly increased”. The “colony forming ability in soft agar” value was “did not have any effect” with PANC1 cells and “colony formation-suppressing effect by NmU was confirmed” with FM4-PANC1 cells. The “proliferation (number of cells)” value is reported as “did not act at all on the proliferation” in the assay on PANC-1 and “proliferation-suppressing effect of NmU was observed” in the assay with Capan-1. The food/feed intake entry in [7] is “significant reduction in overnight food intake and starvation-induced feeding”.
